Test results published in patent publication US6737383B1, “Herbicidal oxadiazolidines” (priority 1999, dated 2004).

Experiments:
[1] = tested on: sourgrass; assay: Test D sourgrass; assay type: in vivo, Trichachne insularis; conditions: Preemergence, 0 to 100 scale
Procedure, shortened: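 Herbicide screen in the greenhouse. A non-phytotoxic solvent mixture with surfactant carried the test chemical; in pre-emergence tests it went onto the soil of pots seeded no more than a day earlier. Injury was scored by eye 14 to 21 days after application, 0 to 100.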

[2] = tested on: arrowleaf sida; assay: Test C postemergence arrowleaf sida; assay type: in vivo, Sida rhombifolia; conditions: 0 to 100 scale, 0 no effect, 100 complete control
Procedure, shortened: (§1)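 Postemergence spray; formulation = non-phytotoxic solvent + surfactant; soil 60:40 sandy loam:greenhouse potting mix; greenhouse, ~14–21 d; visual rating vs untreated, 0–100 (100 = complete control).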

[3] = tested on: cotton; assay: Test C postemergence cotton; assay type: in vivo, Gossypium hirsutum; conditions: 0 to 100 scale, 0 no effect, 100 complete control
Procedure, shortened: as §1

[4] = tested on: field bindweed; assay: Test C postemergence field bindweed; assay type: in vivo, Convolvulus arvensis; conditions: 0 to 100 scale, 0 no effect, 100 complete control
Procedure, shortened: as §1

[5] = tested on: giant foxtail; assay: Test C postemergence giant foxtail; assay type: in vivo, Setaria faberii; conditions: 0 to 100 scale, 0 no effect, 100 complete control
Procedure, shortened: as §1

[6] = tested on: hairy beggarticks; assay: Test C postemergence hairy beggarticks; assay type: in vivo, Bidens pilosa; conditions: 0 to 100 scale, 0 no effect, 100 complete control
Procedure, shortened: as §1

[7] = tested on: black nightshade; assay: Test E black nightshade; assay type: in vivo, Solanum nigra; conditions: Postemergence
Procedure, shortened: (§2)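 Greenhouse test: for postemergence, foliar application at 1- to 4-leaf stage; compound in non-phytotoxic solvent with surfactant. Rating is visual, relative to untreated controls, about 21 to 28 days after treatment.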

[8] = tested on: field violet; assay: Test E field violet; assay type: in vivo, Viola arvensis; conditions: Postemergence
Procedure, shortened: as §2

[9] = tested on: Russian thistle; assay: Test E Russian thistle; assay type: in vivo, Salsola kali; conditions: Postemergence
Procedure, shortened: as §2

[10] = tested on: wild buckwheat; assay: Test E wild buckwheat; assay type: in vivo, Polygonum convolvulus; conditions: Postemergence
Protocol: Compounds evaluated in this test were formulated in a non-phytotoxic solvent mixture which included a surfactant and applied to plants that were in the 1- to 4-leaf stage (postemergence application). A mixture of sandy loam soil and greenhouse potting mix in a 60:40 ratio was used for the postemergence test.
Plantings of these crops and weed species were adjusted to produce plants of appropriate size for the postemergence test. All plant species were grown using normal greenhouse practices. Crop and weed species include annual bluegrass (Poa annua), blackgrass (Alopecurus myosuroides), black nightshade (Solanum nigra), chickweed (Stellaria media), common poppy (Papaver rhoeas), deadnettle (Lamium amplexicaule), downy brome (Bromus tectorum), field violet (Viola arvensis), galium (Galium aparine), green foxtail (Setaria viridis), Italian ryegrass (Lolium multiflorum), jointed goatgrass (Aegilops cylindrica), kochia (Kochia scoparia), lambsquarters (Chenopodium album), littleseed canarygrass (Phalaris minor), rape (Brassica napus), redroot pigweed (Amaranthus retroflexus), Russian thistle (Salsola kali), scentless chamomile (Matricaria inodora), spring barley (Hordeum vulgare), sugar beet (Beta vulgaris), sunflower (Helianthus annuus), ivyleaf speedwell (Veronica hederaefolia), spring wheat (Triticum aestivum), winter wheat (Triticum aestivum), wild buckwheat (Polygonum convolvulus), wild mustard (Sinapis arvensis), wild oat (Avena fatua), windgrass (Apera spica-venti) and winter barley (Hordeum vulgare).
Treated plants and untreated controls were maintained in a greenhouse for approximately 21 to 28 days, after which all treated plants were compared to untreated controls and visually evaluated. […] A dash response (-) means no test result.

[11] = tested on: black nightshade; assay: Test E black nightshade; assay type: in vivo, Solanum nigra; conditions: Preemergence
[12] = tested on: field violet; assay: Test E field violet; assay type: in vivo, Viola arvensis; conditions: Preemergence
[13] = tested on: galium; assay: Test E galium; assay type: in vivo, Galium aparine; conditions: Preemergence
[14] = tested on: sugar beet; assay: Test E sugar beet; assay type: in vivo, Beta vulgaris; conditions: Preemergence
[15] = tested on: sunflower; assay: Test E sunflower; assay type: in vivo, Helianthus annuus; conditions: Preemergence
[16] = tested on: windgrass; assay: Test E windgrass; assay type: in vivo, Apera spica-venti; conditions: Preemergence
[17] = Rate 64 g/ha, 0 no injury, 100 complete control
[18] = Rate 250 g/ha, 0 to 100 scale where 0 is no effect and 100 is complete control
[19] = Rate 125 g/ha, 0 to 100 scale (0 no effect, 100 complete control)

`COc1ccccc1-n1c(=O)on(C(=O)N(c2ccc(F)cc2)C(C)C)c1=O` [Compound 30] was tested, and the “Plant response rating Sourgrass” value [1, 17] was 100.
With `CC(C)N(C(=O)n1oc(=O)n(C)c1=O)c1ccc(F)cc1` [Compound 138] the “Plant response rating Arrowleaf sida” value ([2]; Rate 140 g/ha) was 0, the “Plant response rating Arrowleaf sida” value ([2]; Rate 1120 g/ha) was 70 and the “Plant response rating Cotton” value ([3]; Rate 140 g/ha) was 5. The “Plant response rating Cotton” value ([3]; Rate 280 g/ha) was 30, the “Plant response rating Cotton” value ([3]; Rate 560 g/ha) was 40 and the “Plant response rating Cotton” value ([3]; Rate 1120 g/ha) was 70. The “Plant response rating Field bindweed” value ([4]; Rate 140 g/ha) was 0, the “Plant response rating Field bindweed” value ([4]; Rate 280 g/ha) was 0 and the “Plant response rating Field bindweed” value ([4]; Rate 560 g/ha) was 0. For the same compound, the “Plant response rating Field bindweed” value ([4]; Rate 1120 g/ha) was 50, the “Plant response rating, Giant foxtail” value ([5]; Rate 140 g/ha) was 0 and the “Plant response rating, Giant foxtail” value ([5]; Rate 280 g/ha) was 15. For the same compound, the “Plant response rating, Giant foxtail” value ([5]; Rate 560 g/ha) was 80, the “Plant response rating, Giant foxtail” value ([5]; Rate 1120 g/ha) was 85 and the “Plant response rating H. beggarticks” value ([6]; Rate 280 g/ha) was 10. For the same compound, the “Plant response rating H. beggarticks” value ([6]; Rate 1120 g/ha) was 80, the “Plant response rating Sourgrass” value [1, 17] was 98 and the “Plant response rating Sourgrass” value ([1]; Rate 125 g/ha, 0 no injury, 100 complete control) was 100. The “Plant response rating Sourgrass” value ([1]; Rate 500 g/ha) was 100, the “Plant response rating, Blk nightshade” value ([7]; Rate 125 g/ha, 0 to 100 scale) was 20 and the “Blk nightshade plant response rating” value [7, 18] was 60. For the same compound, the “Plant response rating, Field violet” value ([8]; Rate 125 g/ha, 0 to 100 scale) was 10, the “Field violet plant response rating” value [8, 18] was 30 and the “Plant response rating, Russian thistle” value ([9]; Rate 125 g/ha, 0 to 100 scale) was 0. For the same compound, the “Russian thistle plant response rating” value [9, 18] was 0, the “Plant response rating, Wild buckwheat” value ([10]; Rate 125 g/ha, 0 to 100 scale) was 0 and the “Wild buckwheat plant response rating” value [10, 18] was 0. The “Plant response rating, Blk nightshade” value [11, 19] was 85, the “Blk nightshade plant response rating (0 to 100 scale)” value ([11]; Rate 250 g/ha) was 95 and the “Plant response rating, Field violet” value [12, 19] was 50. For the same compound, the “Field violet plant response rating (0 to 100 scale)” value ([12]; Rate 250 g/ha) was 70, the “Plant response rating, Galium” value [13, 19] was 50 and the “Galium plant response rating (0 to 100 scale)” value ([13]; Rate 250 g/ha) was 70. The “Plant response rating, Sugar beet” value [14, 19] was 0, the “Sugar beet plant response rating (0 to 100 scale)” value ([14]; Rate 250 g/ha) was 50 and the “Plant response rating, Sunflower” value [15, 19] was 55. The “Sunflower plant response rating (0 to 100 scale)” value ([15]; Rate 250 g/ha) was 60, the “Plant response rating, Windgrass” value [16, 19] was 100 and the “Windgrass plant response rating (0 to 100 scale)” value ([16]; Rate 250 g/ha) was 100.
